{
  "source": "patent US6762036B2",
  "about": "“Cellular physiology workstations for automated data acquisition and perfusion control” (Trustees of Boston University, priority 1995, dated 2004)",
  "assay_type_in_all_cases": "cell-based",
  "key": {"[1]": {"system": "metabotropic glutamate receptors", "assay": "Inhibition of kainate responses by stimulation of metabotropic glutamate receptors in oocytes injected with rat brain poly A+ mRNA", "conditions": "about 500 μM tACPD, about 100 μM kainate, repetitive applications, FIG. 14", "experimental": "Poly A^+ mRNA are extracted from brain tissue and neuronal cell culture using a magnetic separation protocol based on the Dynabeads Oligo (dT)25 kit (Dynal, Olso, Norway). Briefly, the protocol utilized magnetic beads that have an attached poly-T moiety which can bind poly A^+ mRNA for separation. Tissue is homogenized, cells are disrupted, and the lysate is added to an aliquot of Dynabeads. Magnetic separation efficiently yields mRNA that is suitable for direct injection into oocytes. Batches of about 20 to about 30 select oocytes are injected with about 50 to about 100 ng of neuronal poly A^+ mRNA. Alternatively, oocytes may be injected with about […] of RNA prepared from in vitro transcription of cDNA clones. In either case, injection may be performed using a Drummond electronic microinjector. Oocytes are then maintained at about 18° C. to about 19° C. for about 2 to about 4 days to allow protein expression prior to electrophysiological recordings. After incubation, electrophysiological analysis of expressed receptors and ion channels may be performed using a system according to the present invention."}, "[2]": {"molecular_target": "T1, recombinant GluR6 kainate receptors (Homo sapiens, UniProt Q13002)", "T1 construct": "expressed in transfected cells; host or cells: Xenopus laevis oocytes injected with in vitro transcribed GluR6 cRNA", "T1 sequence (Q13002 32-908)": "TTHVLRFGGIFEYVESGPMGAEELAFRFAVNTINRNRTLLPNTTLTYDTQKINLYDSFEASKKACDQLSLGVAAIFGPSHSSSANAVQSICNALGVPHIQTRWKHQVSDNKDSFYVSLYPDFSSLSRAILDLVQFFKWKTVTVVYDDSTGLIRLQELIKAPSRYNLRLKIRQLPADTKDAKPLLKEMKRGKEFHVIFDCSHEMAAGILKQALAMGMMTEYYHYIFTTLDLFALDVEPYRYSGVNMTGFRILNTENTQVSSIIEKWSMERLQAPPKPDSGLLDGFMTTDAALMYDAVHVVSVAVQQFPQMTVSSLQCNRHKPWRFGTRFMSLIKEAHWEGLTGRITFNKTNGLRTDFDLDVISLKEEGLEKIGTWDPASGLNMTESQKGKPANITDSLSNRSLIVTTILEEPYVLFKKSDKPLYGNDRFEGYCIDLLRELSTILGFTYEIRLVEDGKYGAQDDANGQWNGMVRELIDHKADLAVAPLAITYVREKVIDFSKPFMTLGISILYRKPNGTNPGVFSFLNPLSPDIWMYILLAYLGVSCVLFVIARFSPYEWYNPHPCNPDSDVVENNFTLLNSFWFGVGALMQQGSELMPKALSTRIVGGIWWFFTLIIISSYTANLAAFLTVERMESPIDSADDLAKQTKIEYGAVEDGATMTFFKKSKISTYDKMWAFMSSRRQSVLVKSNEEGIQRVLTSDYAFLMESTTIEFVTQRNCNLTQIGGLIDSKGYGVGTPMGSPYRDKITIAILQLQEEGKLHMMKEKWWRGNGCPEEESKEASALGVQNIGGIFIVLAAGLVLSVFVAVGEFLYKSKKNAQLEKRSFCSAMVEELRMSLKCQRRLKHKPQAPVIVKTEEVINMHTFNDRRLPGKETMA", "assay": "Effects of steroids on recombinant GluR6 kainate receptors in oocytes", "conditions": "recombinant GluR6, Vh about −100 mV, FIG. 11", "description": "All measurements were performed under Vh of about −100 mV.\nAbout 3 days to about 5 days after RNA injection, electrophysiological recordings were carried out using an Axoclamp-2A voltage clamp amplifier (Axon Instruments, Inc.). Experiments were performed in two-electrode voltage clamp mode using two intracellular microelectrodes of about 1 to about 3 mega-ohm resistance filled with a solution of about 3M KCl.\nOocytes were usually clamped at a holding potential of about −60 mV and stepped to about −100 mV during agent application."}, "[3]": {"system": "kainate responses in oocytes injected with rat brain poly A+ mRNA", "assay": "Effect of pregnenolone sulfate on kainate dose-response curve in oocytes injected with rat brain poly A+ mRNA", "conditions": "with and without pregnenolone sulfate, Vh about −100 mV, FIG. 9", "description": "Poly A^+ mRNA are extracted from brain tissue and neuronal cell culture using a magnetic separation protocol based on the Dynabeads Oligo (dT)25 kit (Dynal, Olso, Norway). Briefly, the protocol utilized magnetic beads that have an attached poly-T moiety which can bind poly A^+ mRNA for separation. Tissue is homogenized, cells are disrupted, and the lysate is added to an aliquot of Dynabeads. Magnetic separation efficiently yields mRNA that is suitable for direct injection into oocytes. Batches of about 20 to about 30 select oocytes are injected with about 50 to about 100 ng of neuronal poly A^+ mRNA. Alternatively, oocytes may be injected with about 30 μl to about 80 μl of RNA prepared from in vitro transcription of cDNA clones. In either case, injection may be performed using a Drummond electronic microinjector. Oocytes are then maintained at about 18° C. to about 19° C. for about 2 to about 4 days to allow protein expression prior to electrophysiological recordings. After incubation, electrophysiological analysis of expressed receptors and ion channels may be performed using a system according to the present invention.\nAbout 3 days to about 5 days after RNA injection, electrophysiological recordings were carried out using an Axoclamp-2A voltage clamp amplifier (Axon Instruments, Inc.). […]"}},
  "data": [
    {"molecule": "N[C@]1(C(=O)O)CC[C@H](C(=O)O)C1", "note": "[tACPD]", "values": [
      {"measurement": "Effect on responses to kainate", "setting": "[1]", "result": "can inhibit responses to kainate"}
    ]},
    {"molecule": "pregnenolone sulfate", "values": [
      {"measurement": "Effect on maximal response to kainate", "setting": "[2]", "result": "decrease the maximal response to kainate"},
      {"measurement": "Effect on Emax of kainate dose-response curve", "setting": "[3]", "result": "decrease in Emax"}
    ]}
  ]
}
